From ChEMBL document CHEMBL3045779, “Microwave solvent-free condition synthesis and pharmacological evaluation of pyrano[3,2-c]quinolines” (2012)

How the values were obtained:
Assay type in all cases: functional
Staphylococcus aureus [1] = test: Antibacterial activity against Staphylococcus aureus at 100 ug/ml after 24 hr by paper disk diffusion method; conditions: read-out: IZ
Escherichia coli [2] = test: Antibacterial activity against Escherichia coli at 100 ug/ml after 24 hr by paper disk diffusion method; conditions: read-out: IZ
Rattus norvegicus [3] = test: Anti-inflammatory activity inRattus norvegicus albino (rat) assessed as inhibition of carrageenan-induced paw edema at 100 mg/kg administered 1 hr prior to carrageenan-challenge measured after 1 hr by plethysmometric analysis relative to control
Staphylococcus aureus [4] = test: Antibacterial activity against Staphylococcus aureus at 50 ug/ml after 24 hr by paper disk diffusion method; conditions: read-out: IZ
Rattus norvegicus [5] = test: Anti-inflammatory activity inRattus norvegicus albino (rat) assessed as inhibition of carrageenan-induced paw edema at 100 mg/kg administered 1 hr prior to carrageenan-challenge measured after 3 hr by plethysmometric analysis relative to control
Escherichia coli [6] = test: Antibacterial activity against Escherichia coli at 50 ug/ml after 24 hr by paper disk diffusion method; conditions: read-out: IZ
Rattus norvegicus [7] = test: Anti-inflammatory activity inRattus norvegicus albino (rat) assessed as inhibition of carrageenan-induced paw edema at 100 mg/kg administered 1 hr prior to carrageenan-challenge measured after 2 hr by plethysmometric analysis relative to control

## CCOC(=O)C1=C(N)Oc2c(c(=O)[nH]c3ccc(C)cc23)C1c1ccc(O)cc1 (centres undefined)
Staphylococcus aureus [1]
  zone of inhibition at 100 µg/mL: 19.7 mm
Escherichia coli [2]
  zone of inhibition at 100 µg/mL: 18.2 mm
Rattus norvegicus [3]
  inhibition in vivo at 100 mg/kg: 57.1%
Staphylococcus aureus [4]
  zone of inhibition at 50 µg/mL: 17.6 mm
Rattus norvegicus [5]
  inhibition in vivo at 100 mg/kg: 69.2%
Escherichia coli [6]
  zone of inhibition at 50 µg/mL: 16.2 mm
Rattus norvegicus [7]
  inhibition in vivo at 100 mg/kg: 70.4%

## CCOC(=O)C1=C(N)Oc2c(c(=O)[nH]c3ccc(C)cc23)C1c1cccc([N+](=O)[O-])c1 (centres undefined)
Staphylococcus aureus [1]
  zone of inhibition at 100 µg/mL: 19.2 mm
Escherichia coli [2]
  zone of inhibition at 100 µg/mL: 17.4 mm
Rattus norvegicus [3]
  inhibition in vivo at 100 mg/kg: 54.3%
Staphylococcus aureus [4]
  zone of inhibition at 50 µg/mL: 18.1 mm
Rattus norvegicus [5]
  inhibition in vivo at 100 mg/kg: 75.5%
Escherichia coli [6]
  zone of inhibition at 50 µg/mL: 16.5 mm
Rattus norvegicus [7]
  inhibition in vivo at 100 mg/kg: 70.3%

## CCOC(=O)C1=C(N)Oc2c(c(=O)[nH]c3ccc(C)cc23)C1c1cccc(Cl)c1 (centres undefined)
Staphylococcus aureus [1]
  zone of inhibition at 100 µg/mL: 15.7 mm
Escherichia coli [2]
  zone of inhibition at 100 µg/mL: 15.2 mm
Rattus norvegicus [3]
  inhibition in vivo at 100 mg/kg: 56.4%
Staphylococcus aureus [4]
  zone of inhibition at 50 µg/mL: 14.6 mm
Rattus norvegicus [5]
  inhibition in vivo at 100 mg/kg: 75.5%
Escherichia coli [6]
  zone of inhibition at 50 µg/mL: 14.1 mm
Rattus norvegicus [7]
  inhibition in vivo at 100 mg/kg: 69.7%

## CCOC(=O)C1=C(N)Oc2c(c(O)nc3ccccc23)C1c1ccccc1 (centres undefined)
Staphylococcus aureus [1]
  zone of inhibition at 100 µg/mL: 16.7 mm
Escherichia coli [2]
  zone of inhibition at 100 µg/mL: 16.2 mm
Rattus norvegicus [3]
  inhibition in vivo at 100 mg/kg: 54.2%
Staphylococcus aureus [4]
  zone of inhibition at 50 µg/mL: 15.6 mm
Rattus norvegicus [5]
  inhibition in vivo at 100 mg/kg: 75.2%
Escherichia coli [6]
  zone of inhibition at 50 µg/mL: 15.2 mm
Rattus norvegicus [7]
  inhibition in vivo at 100 mg/kg: 61.9%

## CC1COc2c(N3CCN(C)CC3)c(F)cc3c(=O)c(C(=O)O)cn1c23 (centres undefined) [OFLOXACIN]
Staphylococcus aureus [1]
  zone of inhibition at 100 µg/mL: 24.3 mm
Staphylococcus aureus [4]
  zone of inhibition at 50 µg/mL: 21.2 mm

## CCOC(=O)C1=C(N)Oc2c(c(=O)[nH]c3ccccc23)C1c1ccc(O)cc1 (centres undefined)
Staphylococcus aureus [1]
  zone of inhibition at 100 µg/mL: 17.6 mm
Escherichia coli [2]
  zone of inhibition at 100 µg/mL: 17 mm
Rattus norvegicus [3]
  inhibition in vivo at 100 mg/kg: 58.4%
Staphylococcus aureus [4]
  zone of inhibition at 50 µg/mL: 16.9 mm
Rattus norvegicus [5]
  inhibition in vivo at 100 mg/kg: 75.2%
Escherichia coli [6]
  zone of inhibition at 50 µg/mL: 15.7 mm
Rattus norvegicus [7]
  inhibition in vivo at 100 mg/kg: 63.4%

## CCOC(=O)C1=C(N)Oc2c(c(=O)[nH]c3ccccc23)C1c1ccccc1Cl (centres undefined)
Staphylococcus aureus [1]
  zone of inhibition at 100 µg/mL: 16.3 mm
Escherichia coli [2]
  zone of inhibition at 100 µg/mL: 15 mm
Rattus norvegicus [3]
  inhibition in vivo at 100 mg/kg: 55.6%
Staphylococcus aureus [4]
  zone of inhibition at 50 µg/mL: 15.2 mm
Rattus norvegicus [5]
  inhibition in vivo at 100 mg/kg: 80.6%
Escherichia coli [6]
  zone of inhibition at 50 µg/mL: 13.7 mm
Rattus norvegicus [7]
  inhibition in vivo at 100 mg/kg: 69.4%

## CCOC(=O)C1=C(N)Oc2c(c(=O)[nH]c3ccc(C)cc23)C1c1ccccc1 (centres undefined)
Escherichia coli [2]
  zone of inhibition at 100 µg/mL: 16.2 mm
Rattus norvegicus [3]
  inhibition in vivo at 100 mg/kg: 56.2%
Staphylococcus aureus [4]
  zone of inhibition at 50 µg/mL: 14.7 mm
Rattus norvegicus [5]
  inhibition in vivo at 100 mg/kg: 75.2%
Escherichia coli [6]
  zone of inhibition at 50 µg/mL: 15.7 mm
Rattus norvegicus [7]
  inhibition in vivo at 100 mg/kg: 71.1%

## CCOC(=O)C1=C(N)Oc2c(c(=O)[nH]c3ccc(C)cc23)C1c1ccccc1Cl (centres undefined)
Staphylococcus aureus [1]
  zone of inhibition at 100 µg/mL: 17.3 mm
Escherichia coli [2]
  zone of inhibition at 100 µg/mL: 17.3 mm
Rattus norvegicus [3]
  inhibition in vivo at 100 mg/kg: 58.1%
Staphylococcus aureus [4]
  zone of inhibition at 50 µg/mL: 16.1 mm
Rattus norvegicus [5]
  inhibition in vivo at 100 mg/kg: 74.2%
Escherichia coli [6]
  zone of inhibition at 50 µg/mL: 15.4 mm
Rattus norvegicus [7]
  inhibition in vivo at 100 mg/kg: 68.1%

## CCOC(=O)C1=C(N)Oc2c(c(=O)[nH]c3ccccc23)C1c1ccc(Cl)cc1 (centres undefined)
Staphylococcus aureus [1]
  zone of inhibition at 100 µg/mL: 16.7 mm
Escherichia coli [2]
  zone of inhibition at 100 µg/mL: 16.2 mm
Rattus norvegicus [3]
  inhibition in vivo at 100 mg/kg: 56.2%
Staphylococcus aureus [4]
  zone of inhibition at 50 µg/mL: 16.3 mm
Rattus norvegicus [5]
  inhibition in vivo at 100 mg/kg: 80.7%
Escherichia coli [6]
  zone of inhibition at 50 µg/mL: 15.2 mm
Rattus norvegicus [7]
  inhibition in vivo at 100 mg/kg: 66.1%

## CCOC(=O)C1=C(N)Oc2c(c(=O)[nH]c3ccc(C)cc23)C1c1ccc(Cl)cc1 (centres undefined)
Staphylococcus aureus [1]
  zone of inhibition at 100 µg/mL: 18.5 mm
Rattus norvegicus [3]
  inhibition in vivo at 100 mg/kg: 59.4%
Staphylococcus aureus [4]
  zone of inhibition at 50 µg/mL: 15.8 mm
Rattus norvegicus [5]
  inhibition in vivo at 100 mg/kg: 77.7%
Escherichia coli [6]
  zone of inhibition at 50 µg/mL: 15.4 mm
Rattus norvegicus [7]
  inhibition in vivo at 100 mg/kg: 70.3%

## CCOC(=O)C1=C(N)Oc2c(c(=O)[nH]c3ccccc23)C1c1cccc(Cl)c1 (centres undefined)
Staphylococcus aureus [1]
  zone of inhibition at 100 µg/mL: 15.7 mm
Rattus norvegicus [3]
  inhibition in vivo at 100 mg/kg: 57.6%
Staphylococcus aureus [4]
  zone of inhibition at 50 µg/mL: 15.4 mm
Rattus norvegicus [5]
  inhibition in vivo at 100 mg/kg: 75.9%
Escherichia coli [6]
  zone of inhibition at 50 µg/mL: 14.1 mm
Rattus norvegicus [7]
  inhibition in vivo at 100 mg/kg: 68.5%

## CCOC(=O)C1=C(N)Oc2c(c(=O)[nH]c3ccccc23)C1c1cccc([N+](=O)[O-])c1 (centres undefined)
Escherichia coli [2]
  zone of inhibition at 100 µg/mL: 17 mm
Rattus norvegicus [3]
  inhibition in vivo at 100 mg/kg: 53.5%
Staphylococcus aureus [4]
  zone of inhibition at 50 µg/mL: 17.3 mm
Rattus norvegicus [5]
  inhibition in vivo at 100 mg/kg: 79.3%
Escherichia coli [6]
  zone of inhibition at 50 µg/mL: 16.1 mm
Rattus norvegicus [7]
  inhibition in vivo at 100 mg/kg: 69%

## CN[C@@H]1[C@H](O[C@H]2[C@H](O[C@H]3[C@H](O)[C@@H](O)[C@H](N=C(N)N)[C@@H](O)[C@@H]3N=C(N)N)O[C@@H](C)[C@]2(O)C=O)O[C@@H](CO)[C@H](O)[C@H]1O [STREPTOMYCIN]
Escherichia coli [2]
  zone of inhibition at 100 µg/mL: 25.2 mm
Escherichia coli [6]
  zone of inhibition at 50 µg/mL: 20.1 mm
